One assay has as its target T1, human TLR7 (Homo sapiens, UniProt Q9NYK1).
T1 construct: host or cells: HEK-Blue TLR7 cells (engineered human embryonic kidney cells)
T1 sequence (Q9NYK1 27-1049): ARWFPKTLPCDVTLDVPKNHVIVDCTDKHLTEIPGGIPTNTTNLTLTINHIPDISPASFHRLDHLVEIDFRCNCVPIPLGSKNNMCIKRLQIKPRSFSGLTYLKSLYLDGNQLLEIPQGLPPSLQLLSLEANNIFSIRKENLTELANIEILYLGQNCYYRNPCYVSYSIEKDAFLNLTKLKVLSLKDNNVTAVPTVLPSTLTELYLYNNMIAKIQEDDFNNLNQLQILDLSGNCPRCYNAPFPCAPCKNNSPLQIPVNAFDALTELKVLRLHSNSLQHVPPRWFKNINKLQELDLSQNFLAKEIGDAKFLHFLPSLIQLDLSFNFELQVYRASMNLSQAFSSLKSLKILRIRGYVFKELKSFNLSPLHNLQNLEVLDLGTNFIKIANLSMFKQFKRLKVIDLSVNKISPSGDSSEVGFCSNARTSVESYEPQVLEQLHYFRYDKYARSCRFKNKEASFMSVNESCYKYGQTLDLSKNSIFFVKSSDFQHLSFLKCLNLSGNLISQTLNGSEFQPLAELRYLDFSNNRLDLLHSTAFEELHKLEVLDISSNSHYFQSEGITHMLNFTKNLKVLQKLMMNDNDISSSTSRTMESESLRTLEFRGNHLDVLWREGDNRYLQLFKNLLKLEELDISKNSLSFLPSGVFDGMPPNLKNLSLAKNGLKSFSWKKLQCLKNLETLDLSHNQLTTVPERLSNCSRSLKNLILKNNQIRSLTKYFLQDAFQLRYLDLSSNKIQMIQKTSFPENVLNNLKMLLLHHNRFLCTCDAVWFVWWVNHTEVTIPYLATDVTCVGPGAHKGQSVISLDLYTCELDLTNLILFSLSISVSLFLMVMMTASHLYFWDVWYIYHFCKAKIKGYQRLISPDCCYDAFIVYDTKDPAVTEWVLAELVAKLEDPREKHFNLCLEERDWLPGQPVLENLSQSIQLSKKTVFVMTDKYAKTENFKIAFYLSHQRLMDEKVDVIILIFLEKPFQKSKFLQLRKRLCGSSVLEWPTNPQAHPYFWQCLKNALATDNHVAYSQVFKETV
As to the kind of experiment: Human TLR7 agonist (reporter) activity assay, HEK-Blue TLR7 cells, SEAP reporter. The note with it: 18 h treatment, average where assay was performed multiple times, read-out: hTLR7 Agonism EC50. The format is cell-based. The method, then: This procedure describes a method for assaying human TLR7 (hTLR7) agonist activity of the compounds disclosed in this specification.
HEK-Blue™ TLR7 cells were added to each well of a 384-well tissue-culture plate (15,000 cells per well) and incubated 16-18 h at 37° C., 5% CO2. Compounds (100 nl) were dispensed into wells containing the HEK-Blue™ TLR cells and the treated cells were incubated at 37° C., 5% CO2. After 18 h treatment ten microliters of freshly-prepared Quanti-Blue™ reagent (Invivogen) was added to each well, incubated for 30 min (37° C., 5% CO2) and SEAP levels measured using an Envision plate reader (OD=620 nm). The half maximal effective concentration values (EC50; compound concentration which induced a response halfway between the assay baseline and maximum) were calculated.

For a further assay, the system named is CD69. Description: Induction of CD69 in human whole blood. The note with it: 17 hrs, CD69 surface staining, 100% set to 1 uM of resiquimod, average where assay was performed multiple times, read-out: hWB CD69 EC50. The format is cell-based. Here is the method:
The induction of Type I interferon (IFN) MX-1 genes and the B-cell activation marker CD69 are downstream events that occur upon activation of the TLR7 pathway. The following is a human whole blood assay that measures their induction in response to a TLR7 agonist.
Heparinized human whole blood was harvested from human subjects and treated with test TLR7 agonist compounds at 1 mM. The blood was diluted with RPMI 1640 media and Echo was used to predot 10 nL per well giving a final concentration of 1 uM (10 nL in 10 uL of blood). After mixing on a shaker for 30 sec, the plates were covered and placed in a 37° C. chamber for o/n=17 hrs. Fixing/lysis buffer was prepared (5×→1× in H2O, warm at 37° C.; Cat # BD 558049) and kept the perm buffer (on ice) for later use.
For surface markers staining (CD69): prepared surface Abs: 0.045 ul hCD14-FITC (ThermoFisher Cat # MHCD1401)+0.6 ul hCD19-ef450 (ThermoFisher Cat #48-0198-42)+1.5 ul hCD69-PE (cat # BD555531)+0.855 ul FACS buffer. Added 3 ul/well, spin1000 rpm for 1 min and mixed on shaker for 30 sec, put on ice for 30 mins. Stop stimulation after 30 minutes with 70 uL of prewarmed 1× fix/lysis buffer and use Feliex mate to resuspend (15 times, change tips for each plate) and incubate at 37 C for 10 minutes.
Centrifuge at 2000 rpm for 5 minutes aspirate with HCS plate washer, mix on shaker for 30 sec and then wash with 70 uL in dPBS and pelleted 2×s (2000 rpm for 5 min) and 50 ul wash in FACS buffer pelleted 1×s(2000 rpm for 5 min). Mix on shaker for 30 sec. For Intracellular markers staining (MX-1): Add 50 ul of BD Perm buffer III and mix on shaker for 30 sec. Incubate on ice for 30 minutes (in the dark). Wash with 50 uL of FACS buffer 2× (spin @2300 rpm×5 min after perm) followed by mixing on shaker for 30 sec. Resuspended in 20 ul of FACS buffer containing MX1 antibody ( )(4812)-Alexa 647: Novus Biologicals #NBP2-43704AF647) 20 ul FACS bf+0.8 ul hlgG+0.04 ul MX-1. Spin 1000 rpm for 1 min, mix on shaker for 30se and the samples were incubated at RT in the dark for 45 minutes followed by washing 2×FACS buffer (spin @2300 rpm×5 min after perm). Resuspend 20 ul (35 uL total per well) of FACS buffer and cover with foil and place in 4° C. to read the following day. Plates were read on iQuePlus. The results were loaded into toolset and […] curves are generated in curve master. The y-axis 100% is set to 1 uM of resiquimod.

Usually EC50 stands for the concentration giving half of the maximal effect.

Structures are written as SMILES.

As to `COc1cc(CN2CCC(S(C)(=O)=O)CC2)ccc1Cn1ncc2nc(N)nc(NCc3noc(C)n3)c21` [Compound 119, 1-({4-[(4-methanesulfonylpiperidin-1-yl)methyl]-2-methoxyphenyl}methyl)-N7-[(5-methyl-1,2,4-oxadiazol-3-yl)methyl]-1H-pyrazolo[4,3-d]pyrimidine-5,7-diamine], the values for the EC50 on human TLR7 and in the assay with CD69 were 298 nM and 34.7 nM, respectively.
With `COc1cc(CN2CCN(C)CC2)ccc1Cn1nc(C)c2nc(N)nc(NCc3cc(C)on3)c21` [Compound 113, 1-({2-methoxy-4-[(4-methylpipeazin-1-yl)methyl]phenyl}methyl)-3-methyl-N7-[(5-methyl-1,2-oxazol-3-yl)methyl]-1H-pyrazolo[4,3-d]pyrimidine-5,7-diamine], the EC50 stood at 100 nM on human TLR7 and 40.5 nM in the assay on CD69.
Consider `COc1cc(CNC2CCC2)ccc1Cn1ncc2nc(N)nc(NCc3noc(C)n3)c21` [Compound 107, 1-({4-[(cyclobutylamino)methyl]-2-methoxyphenyl}methyl)-N7-[(5-methyl-1,2,4-oxadiazol-3-yl)methyl]-1H-pyrazolo[4,3-d]pyrimidine-5,7-diamine], for which the EC50 on human TLR7 turned out to be 46.6 nM; in the assay with CD69 it was 5.9 nM.
On the same counts, the results for `COc1cc(CNC2CCC2)ccc1Cn1ncc2nc(N)nc(NCc3cc(C)on3)c21` [Compound 102, 1-({4-[(cyclobutylamino)methyl]-2-methoxyphenyl}methyl)-N7-[(5-methyl-1,2-oxazol-3-yl)methyl]-1H-pyrazolo[4,3-d]pyrimidine-5,7-diamine] are 74.6 nM and 25.8 nM.
Turning to `COc1cc(CN2CCN(C)CC2)ccc1Cn1ncc2nc(N)nc(NCc3noc(C4CC4)n3)c21` [Compound 129, N7-[(5-cyclopropyl-1,2,4-oxadiazol-3-yl)methyl]-1-({2-methoxy-4-[(4-methylpiperazin-1-yl)methyl]phenyl}methyl)-1H-pyrazolo[4,3-d]pyrimidine-5,7-diamine], the EC50 worked out at 47.8 nM at human TLR7 and 5.3 nM in the assay with CD69.
On the same counts, the results for `COc1cc(CN2CCC(S(C)(=O)=O)CC2)ccc1Cn1ncc2nc(N)nc(NCc3cc(C)on3)c21` [Compound 111] are 176 nM and 58.8 nM.
On to `COc1cc(CN2CCN(S(C)(=O)=O)CC2)ccc1Cn1ncc2nc(N)nc(NCc3cc(C)on3)c21` [Compound 110, 1-({4-[(4-methanesulfonylpiperazin-1-yl)methyl]-2-methoxyphenyl}methyl)-N7-[(5-methyl-1,2-oxazol-3-yl)methyl]-1H-pyrazolo[4,3-d]pyrimidine-5,7-diamine], for which the values for the EC50 on human TLR7 and in the assay with CD69 were 485 nM and 438 nM, respectively.
As to `COc1cc(CNC2CN(S(C)(=O)=O)C2)ccc1Cn1ncc2nc(N)nc(NCc3noc(C)n3)c21` [Compound 122, 1-[(4-{[(1-methanesulfonylazetidin-3-yl)amino]methyl}-2-methoxyphenyl)methyl]-N7-[(5-methyl-1,2,4-oxadiazol-3-yl)methyl]-1H-pyrazolo[4,3-d]pyrimidine-5,7-diamine], the EC50 on human TLR7 came to 570 nM; in the assay with CD69, 221 nM.
As for `COc1cc(CN2CC(OC)C2)ccc1Cn1ncc2nc(N)nc(N[C@H](CO)CC3CC3)c21` [Compound 125, (2S)-2-{[5-amino-1-({2-methoxy-4-[(3-methoxyazetidin-1-yl)methyl]phenyl}methyl)-1H-pyrazolo[4,3-d]pyrimidin-7-yl]amino}-3-cyclopropylpropan-1-ol], the EC50 on human TLR7 amounted to 138 nM; with CD69, 15.2 nM.
In the case of `COc1cc(CNC2CCOCC2)ccc1Cn1ncc2nc(N)nc(NCc3noc(C4CC4)n3)c21` [Compound 127, N7-[(5-cyclopropyl-1,2,4-oxadiazol-3-yl)methyl]-1-[(2-methoxy-4-{[(oxan-4-yl)amino]methyl}phenyl)methyl]-1H-pyrazolo[4,3-d]pyrimidine-5,7-diamine], the EC50 on human TLR7 was determined as 72.4 nM; in the assay with CD69, 25.5 nM.
The like results for `COc1cc(CN2CCN(C)CC2)ccc1Cn1ncc2nc(N)nc(NCc3cc(C)on3)c21` [Compound 104, 1-({2-methoxy-4-[(4-methylpiperazin-1-yl)methyl]phenyl}methyl)-N7-[(5-methyl-1,2-oxazol-3-yl)methyl]-1H-pyrazolo[4,3-d]pyrimidine-5,7-diamine] were, in that order, 12.3 nM and 3.6 nM.
Turning to `COc1cc(CN2CCN(C)CC2)ccc1Cn1nc(C)c2nc(N)nc(NCc3noc(C)n3)c21` [Compound 134, 1-({2-methoxy-4-[(4-methylpiperazin-1-yl)methyl]phenyl}methyl)-3-methyl-N7-[(5-methyl-1,2,4-oxadiazol-3-yl)methyl]-1H-pyrazolo[4,3-d]pyrimidine-5,7-diamine], the EC50 at human TLR7 was 159 nM.
On to `COc1cc(CN2CCN(CCO)CC2)ccc1Cn1ncc2nc(N)nc(NCc3cc(C)on3)c21` [Compound 105, 2-[4-({4-[(5-amino-7-{[(5-methyl-1,2-oxazol-3-yl)methyl]amino}-1H-pyrazolo[4,3-d]pyrimidin-1-yl)methyl]-3-methoxyphenyl}methyl)piperazin-1-yl]ethan-1-ol], for which, on human TLR7, the EC50 came out at 23.4 nM.
Regarding `COc1cc(CN2CCN(CCO)CC2)ccc1Cn1nc(C)c2nc(N)nc(NCc3noc(C)n3)c21` [Compound 132, 2-[4-({4-[(5-amino-3-methyl-7-{[(5-methyl-1,2,4-oxadiazol-3-yl)methyl]amino}-1H-pyrazolo[4,3-d]pyrimidin-1-yl)methyl]-3-methoxyphenyl}methyl)piperazin-1-yl]ethan-1-ol], the EC50 at human TLR7 was 424 nM.
On to `COc1cc(CO)ccc1Cn1ncc2nc(N)nc(NCc3noc(C)n3)c21` [Compound 116, {4-[(5-amino-7-{[(5-methyl-1,2,4-oxadiazol-3-yl)methyl]amino}-1H-pyrazolo[4,3-d]pyrimidin-1-yl)methyl]-3-methoxyphenyl}methanol], for which, on human TLR7, the EC50 is 729 nM.
For the compound `COc1cc(CNC2CCOCC2)ccc1Cn1nc(C)c2nc(N)nc(NCc3noc(C)n3)c21` [Compound 133, 1-[(2-methoxy-4-{[(oxan-4-yl)amino]methyl}phenyl)methyl]-3-methyl-N7-[(5-methyl-1,2,4-oxadiazol-3-yl)methyl]-1H-pyrazolo[4,3-d]pyrimidine-5,7-diamine], the EC50 on human TLR7 was 1110 nM.

Source of the values: patent publication US20230131192A1, “1H-PYRAZOLO[4,3-d]PYRIMIDINE COMPOUNDS AS TOLL-LIKE RECEPTOR 7 (TLR7) AGONISTS” (BRISTOL-MYERS SQUIBB COMPANY, priority 2020, published 2023).
